Legend:
Type in all cases: biochemical
Lck = molecular target: T1, Lck (Homo sapiens, UniProt P06239); experiment: Kinase inhibition assay (33P transfer), Lck; conditions: Table 3; read-out: Lck-1
T1 construct: Kinases are expressed as either kinase domains or full length constructs; made in house
Method in brief: (§1)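 Measured by scintillation: radiolabelled phosphate added by tagged recombinant kinases to poly(Glu,Tyr) 4:1 or poly(Arg,Ser) 3:1 attached to microtiter wells, counted once free label was washed away with 0.5% phosphoric acid.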

Fyn = molecular target: T2, Fyn (Homo sapiens, UniProt P06241); experiment: Kinase inhibition assay (33P transfer), Fyn; conditions: read-out: Fyn-1
T2 construct: Kinases are expressed as either kinase domains or full length constructs; made in house
Method in brief: (§2)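 Recombinant kinase domains or full-length GST- or His-tagged constructs, from E. coli or baculovirus/High Five cells, sometimes with regulatory polypeptides. Transfer of 33P from ATP to plate-bound poly(Glu,Tyr) 4:1 or poly(Arg,Ser) 3:1 counted by liquid scintillation after phosphoric acid wash; IC50 is the concentration halving incorporation.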

Itk = molecular target: T3, Itk (Homo sapiens, UniProt Q08881); experiment: Kinase inhibition assay (33P transfer), Itk; conditions: Table 3; read-out: Itk-1
T3 construct: Kinases are expressed as either kinase domains or full length constructs; made in house
T3 sequence (Q08881 1-620): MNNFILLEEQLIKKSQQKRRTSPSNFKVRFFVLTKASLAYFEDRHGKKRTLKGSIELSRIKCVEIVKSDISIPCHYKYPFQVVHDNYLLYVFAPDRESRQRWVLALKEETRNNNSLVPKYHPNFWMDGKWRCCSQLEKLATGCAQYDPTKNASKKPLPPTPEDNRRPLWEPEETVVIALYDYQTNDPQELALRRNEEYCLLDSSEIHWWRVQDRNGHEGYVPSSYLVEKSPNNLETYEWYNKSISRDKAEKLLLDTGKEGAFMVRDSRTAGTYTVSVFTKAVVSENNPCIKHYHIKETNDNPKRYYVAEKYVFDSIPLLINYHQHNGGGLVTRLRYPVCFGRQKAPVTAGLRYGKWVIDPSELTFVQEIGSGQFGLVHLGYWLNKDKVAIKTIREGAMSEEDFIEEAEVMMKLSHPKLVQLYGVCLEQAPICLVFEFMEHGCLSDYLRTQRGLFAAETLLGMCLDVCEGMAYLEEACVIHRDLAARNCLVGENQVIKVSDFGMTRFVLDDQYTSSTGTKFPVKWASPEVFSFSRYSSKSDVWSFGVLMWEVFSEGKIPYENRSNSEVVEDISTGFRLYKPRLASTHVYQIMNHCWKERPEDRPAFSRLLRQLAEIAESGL
Method in brief: as §2

EGFR = molecular target: T4, EGFR (Homo sapiens, UniProt P00533); experiment: Kinase inhibition assay (33P transfer), EGFR; conditions: Table 2, kinase inhibition class; read-out: EGFR-1
T4 construct: Kinases are expressed as either kinase domains or full length constructs; made in house
Method in brief: as §2

Tek = molecular target: T5, Tek (Homo sapiens, UniProt Q02763); experiment: Kinase inhibition assay (33P transfer), Tek; conditions: read-out: Tek-1
T5 construct: Kinases are expressed as either kinase domains or full length constructs; made in house
Method in brief: as §2

c-Met = molecular target: T6, c-Met (Homo sapiens, UniProt P08581); experiment: Kinase inhibition assay (33P transfer), c-Met; conditions: Table 2, kinase inhibition class; read-out: Met-1
T6 construct: Kinases are expressed as either kinase domains or full length constructs; made in house
Method in brief: as §2

AKT = molecular target: T7, AKT (Homo sapiens, UniProt Q9Y243); experiment: Kinase inhibition assay (33P transfer), AKT; conditions: Table 2, kinase inhibition class; read-out: AKT3-1
T7 construct: Kinases are expressed as either kinase domains or full length constructs; made in house
Method in brief: as §1

IGFR-1 = molecular target: T8, IGFR-1 (Homo sapiens, UniProt P08069); experiment: Kinase inhibition assay (33P transfer), IGFR-1; conditions: Table 2, kinase inhibition class
T8 construct: Kinases are expressed as either kinase domains or full length constructs; made in house

PDGFRB = molecular target: T9, PDGFRB (Homo sapiens, UniProt P09619); experiment: Kinase inhibition assay (33P transfer), PDGFRB; conditions: read-out: PDGFRB-1
T9 construct: Kinases are expressed as either kinase domains or full length constructs; made in house

FGFR1 = molecular target: T10, FGFR1 (Homo sapiens, UniProt P11362); experiment: Kinase inhibition assay (33P transfer), FGFR1; conditions: read-out: FGFR1-1
T10 construct: Kinases are expressed as either kinase domains or full length constructs; made in house
T10 sequence (P11362 22-822, species assumed): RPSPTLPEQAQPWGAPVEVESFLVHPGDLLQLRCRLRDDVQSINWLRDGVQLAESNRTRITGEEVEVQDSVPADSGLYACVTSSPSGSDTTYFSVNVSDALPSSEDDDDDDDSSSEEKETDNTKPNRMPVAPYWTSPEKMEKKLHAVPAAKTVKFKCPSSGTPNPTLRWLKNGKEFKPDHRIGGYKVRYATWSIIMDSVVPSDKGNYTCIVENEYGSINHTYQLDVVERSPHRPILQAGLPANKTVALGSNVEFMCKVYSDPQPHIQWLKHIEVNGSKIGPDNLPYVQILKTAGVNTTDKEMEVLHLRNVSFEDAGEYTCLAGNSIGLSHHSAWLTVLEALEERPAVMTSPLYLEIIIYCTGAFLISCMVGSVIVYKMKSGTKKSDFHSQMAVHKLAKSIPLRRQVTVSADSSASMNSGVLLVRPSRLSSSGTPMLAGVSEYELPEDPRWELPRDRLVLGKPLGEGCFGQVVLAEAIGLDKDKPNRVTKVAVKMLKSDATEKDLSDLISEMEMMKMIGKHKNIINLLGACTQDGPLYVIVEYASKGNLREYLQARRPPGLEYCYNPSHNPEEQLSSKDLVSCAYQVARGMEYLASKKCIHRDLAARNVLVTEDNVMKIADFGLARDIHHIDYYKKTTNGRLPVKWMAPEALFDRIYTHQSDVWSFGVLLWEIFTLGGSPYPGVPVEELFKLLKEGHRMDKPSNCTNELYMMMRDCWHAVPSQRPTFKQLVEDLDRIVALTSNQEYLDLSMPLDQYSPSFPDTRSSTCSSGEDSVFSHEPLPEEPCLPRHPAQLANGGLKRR

T7 sequence (Q9Y243 whole entry, the tested form may be a part): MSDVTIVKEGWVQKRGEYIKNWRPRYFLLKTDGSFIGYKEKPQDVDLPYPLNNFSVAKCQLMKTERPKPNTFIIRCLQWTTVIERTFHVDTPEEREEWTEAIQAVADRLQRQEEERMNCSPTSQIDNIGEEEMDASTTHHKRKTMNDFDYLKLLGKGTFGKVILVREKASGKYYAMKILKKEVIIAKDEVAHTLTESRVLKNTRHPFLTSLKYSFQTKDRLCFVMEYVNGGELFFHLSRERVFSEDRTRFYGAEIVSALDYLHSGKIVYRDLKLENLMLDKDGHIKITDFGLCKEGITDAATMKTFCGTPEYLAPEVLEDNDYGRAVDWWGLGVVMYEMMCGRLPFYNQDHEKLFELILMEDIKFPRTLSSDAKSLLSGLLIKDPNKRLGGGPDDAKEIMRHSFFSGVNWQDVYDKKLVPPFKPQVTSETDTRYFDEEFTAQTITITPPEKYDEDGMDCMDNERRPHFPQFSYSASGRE
T8 sequence (P08069 31-1367): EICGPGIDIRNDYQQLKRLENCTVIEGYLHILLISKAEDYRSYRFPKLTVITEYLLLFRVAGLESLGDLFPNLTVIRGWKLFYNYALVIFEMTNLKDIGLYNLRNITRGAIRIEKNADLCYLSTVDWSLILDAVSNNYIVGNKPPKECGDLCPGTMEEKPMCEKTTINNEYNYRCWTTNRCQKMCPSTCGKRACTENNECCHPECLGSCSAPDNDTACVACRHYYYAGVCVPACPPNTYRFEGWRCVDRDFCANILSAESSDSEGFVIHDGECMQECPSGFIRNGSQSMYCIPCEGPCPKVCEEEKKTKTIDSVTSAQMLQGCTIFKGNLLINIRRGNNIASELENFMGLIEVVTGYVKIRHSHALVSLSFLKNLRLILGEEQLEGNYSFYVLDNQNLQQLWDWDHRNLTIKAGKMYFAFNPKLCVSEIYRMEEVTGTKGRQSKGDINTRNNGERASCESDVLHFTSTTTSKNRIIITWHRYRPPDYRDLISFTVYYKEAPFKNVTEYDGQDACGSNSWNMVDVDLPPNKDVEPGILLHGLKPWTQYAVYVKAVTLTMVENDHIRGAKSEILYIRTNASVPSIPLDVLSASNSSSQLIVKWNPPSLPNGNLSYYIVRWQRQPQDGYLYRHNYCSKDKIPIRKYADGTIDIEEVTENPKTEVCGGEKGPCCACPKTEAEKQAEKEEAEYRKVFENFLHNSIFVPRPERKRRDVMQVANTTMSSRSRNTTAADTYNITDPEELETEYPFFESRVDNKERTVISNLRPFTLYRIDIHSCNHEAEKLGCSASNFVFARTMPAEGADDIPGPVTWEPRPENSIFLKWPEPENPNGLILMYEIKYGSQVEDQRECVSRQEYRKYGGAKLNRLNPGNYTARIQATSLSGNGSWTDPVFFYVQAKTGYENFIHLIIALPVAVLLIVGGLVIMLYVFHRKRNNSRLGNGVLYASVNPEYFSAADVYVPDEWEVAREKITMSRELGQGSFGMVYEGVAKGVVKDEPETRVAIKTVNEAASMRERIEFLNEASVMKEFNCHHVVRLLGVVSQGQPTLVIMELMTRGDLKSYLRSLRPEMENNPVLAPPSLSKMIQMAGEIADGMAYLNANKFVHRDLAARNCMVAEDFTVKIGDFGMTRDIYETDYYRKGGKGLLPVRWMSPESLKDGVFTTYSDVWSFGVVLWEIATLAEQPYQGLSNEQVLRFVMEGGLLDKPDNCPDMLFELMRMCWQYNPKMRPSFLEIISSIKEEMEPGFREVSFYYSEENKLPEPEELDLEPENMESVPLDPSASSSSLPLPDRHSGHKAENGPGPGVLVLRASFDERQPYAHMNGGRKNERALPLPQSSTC
T9 sequence (P09619 33-1106, species assumed): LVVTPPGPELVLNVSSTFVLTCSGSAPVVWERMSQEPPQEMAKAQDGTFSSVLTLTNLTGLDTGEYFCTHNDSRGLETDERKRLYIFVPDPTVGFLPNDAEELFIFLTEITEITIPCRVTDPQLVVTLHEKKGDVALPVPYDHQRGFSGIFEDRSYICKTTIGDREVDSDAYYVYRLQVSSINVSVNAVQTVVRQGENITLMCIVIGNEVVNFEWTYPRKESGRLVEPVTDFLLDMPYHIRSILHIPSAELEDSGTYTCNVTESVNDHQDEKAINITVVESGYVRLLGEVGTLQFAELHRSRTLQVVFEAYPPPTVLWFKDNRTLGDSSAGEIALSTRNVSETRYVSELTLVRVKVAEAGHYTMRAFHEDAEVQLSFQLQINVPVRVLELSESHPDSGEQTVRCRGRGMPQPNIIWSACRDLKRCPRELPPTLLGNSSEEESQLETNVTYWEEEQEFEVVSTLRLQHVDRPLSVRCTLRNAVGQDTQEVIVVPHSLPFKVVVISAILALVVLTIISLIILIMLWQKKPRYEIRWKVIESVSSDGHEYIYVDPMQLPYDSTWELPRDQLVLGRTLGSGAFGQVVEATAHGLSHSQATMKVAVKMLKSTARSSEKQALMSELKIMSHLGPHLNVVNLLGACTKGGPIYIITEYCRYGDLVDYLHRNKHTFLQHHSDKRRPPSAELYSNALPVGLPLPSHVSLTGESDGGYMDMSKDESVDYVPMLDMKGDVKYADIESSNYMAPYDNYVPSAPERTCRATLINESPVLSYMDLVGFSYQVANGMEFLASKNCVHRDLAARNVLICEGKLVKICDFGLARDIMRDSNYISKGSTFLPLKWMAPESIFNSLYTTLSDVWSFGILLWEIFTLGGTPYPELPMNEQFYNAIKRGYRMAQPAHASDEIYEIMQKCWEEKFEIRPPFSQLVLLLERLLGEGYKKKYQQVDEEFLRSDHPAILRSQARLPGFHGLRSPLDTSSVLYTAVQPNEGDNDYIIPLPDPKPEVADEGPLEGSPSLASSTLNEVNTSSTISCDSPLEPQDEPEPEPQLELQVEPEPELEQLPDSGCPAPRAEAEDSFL
T4 sequence (P00533 25-1210, species assumed): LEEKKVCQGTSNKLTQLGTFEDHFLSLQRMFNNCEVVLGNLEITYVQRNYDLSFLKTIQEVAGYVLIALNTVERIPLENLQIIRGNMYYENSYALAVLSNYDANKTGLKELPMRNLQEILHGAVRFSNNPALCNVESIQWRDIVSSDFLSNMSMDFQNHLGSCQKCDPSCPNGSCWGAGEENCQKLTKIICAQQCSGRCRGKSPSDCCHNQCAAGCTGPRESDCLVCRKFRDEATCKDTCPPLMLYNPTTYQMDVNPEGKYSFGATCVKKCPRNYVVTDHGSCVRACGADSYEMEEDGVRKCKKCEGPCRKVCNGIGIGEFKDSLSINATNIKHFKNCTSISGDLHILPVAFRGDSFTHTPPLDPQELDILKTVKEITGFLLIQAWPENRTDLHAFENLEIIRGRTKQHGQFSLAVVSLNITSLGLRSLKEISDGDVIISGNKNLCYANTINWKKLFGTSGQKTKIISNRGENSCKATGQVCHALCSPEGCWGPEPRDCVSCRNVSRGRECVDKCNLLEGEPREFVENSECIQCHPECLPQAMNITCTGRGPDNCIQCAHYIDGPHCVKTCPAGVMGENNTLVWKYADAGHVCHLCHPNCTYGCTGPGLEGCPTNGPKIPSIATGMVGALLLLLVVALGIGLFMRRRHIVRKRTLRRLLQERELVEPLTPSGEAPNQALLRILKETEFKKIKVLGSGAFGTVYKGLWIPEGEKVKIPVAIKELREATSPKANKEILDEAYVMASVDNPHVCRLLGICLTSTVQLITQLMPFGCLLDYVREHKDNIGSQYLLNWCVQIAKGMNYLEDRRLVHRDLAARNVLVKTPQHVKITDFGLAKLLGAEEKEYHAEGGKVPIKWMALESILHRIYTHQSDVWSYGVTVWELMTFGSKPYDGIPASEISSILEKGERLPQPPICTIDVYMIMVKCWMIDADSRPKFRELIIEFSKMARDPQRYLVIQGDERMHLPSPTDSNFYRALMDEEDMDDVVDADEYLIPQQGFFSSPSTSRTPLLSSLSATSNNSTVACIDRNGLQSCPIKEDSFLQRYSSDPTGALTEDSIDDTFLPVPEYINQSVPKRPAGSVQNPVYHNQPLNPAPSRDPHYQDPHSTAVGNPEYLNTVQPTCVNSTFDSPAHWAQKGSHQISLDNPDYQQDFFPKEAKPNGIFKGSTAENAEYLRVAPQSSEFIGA

Structure (SMILES)	IC50 (Lck)	IC50 (Fyn)	IC50 (Itk)	IC50 (EGFR)	IC50 (Tek)	IC50 (c-Met)	IC50 (AKT)	IC50 (IGFR-1)	IC50 (PDGFRB)	IC50 (FGFR1)
COc1cc(Nc2ncnc(Nc3cccc4ccccc34)n2)cc(OC)c1OC [Compound 98]	< 0.991 µM	0.991 to 5.95 µM	> 11.2 µM	< 0.991 µM	> 11.2 µM	> 11.2 µM	> 11.2 µM	> 11.2 µM	> 11.2 µM	5.95 to 8.68 µM
COc1cc(Nc2ncnc(N(c3ccc(Cl)cc3)c3nc4ccccc4[nH]3)n2)cc(OC)c1OC [Compound 374]	< 0.794 µM	0.794 to 4.76 µM	> 8.93 µM	< 0.794 µM	0.794 to 4.76 µM	0.794 to 4.76 µM	> 8.93 µM	> 8.93 µM	0.794 to 4.76 µM	< 0.794 µM
COc1cc(Nc2ncnc(Nc3cc(-c4ccccc4)n[nH]3)n2)cc(OC)c1OC [Compound 102]	< 0.954 µM	< 0.954 µM	0.954 to 5.72 µM	0.954 to 5.72 µM	5.72 to 8.34 µM	< 0.954 µM	> 10.7 µM	< 0.954 µM	5.72 to 8.34 µM	0.954 to 5.72 µM
COc1cc(Nc2ncnc(Nc3cc(-c4ccc(Cl)cc4)n[nH]3)n2)cc(OC)c1OC [Compound 367]	0.881 to 5.29 µM	0.881 to 5.29 µM	0.881 to 5.29 µM	5.29 to 7.71 µM	7.71 to 9.91 µM	< 0.881 µM	> 9.91 µM	< 0.881 µM	> 9.91 µM	5.29 to 7.71 µM
COc1cc(Nc2ncnc(-c3c(O)[nH]c4ccccc34)n2)cc(OC)c1OC [Compound 380]	> 11.4 µM	1.02 to 6.1 µM	> 11.4 µM	> 11.4 µM	> 11.4 µM	> 11.4 µM	> 11.4 µM	6.1 to 8.9 µM	< 1.02 µM	< 1.02 µM
COc1cc(Nc2ncnc(Nc3cc(-c4ccccc4)nn3C)n2)cc(OC)c1OC [Compound 394]	0.923 to 5.54 µM	0.923 to 5.54 µM	> 10.4 µM	8.07 to 10.4 µM	> 10.4 µM	> 10.4 µM	> 10.4 µM	0.923 to 5.54 µM	0.923 to 5.54 µM	0.923 to 5.54 µM
COc1cc(Nc2ncnc(Nc3ccc(O)cc3Cl)n2)cc(OC)c1OC [Compound 77]	0.991 to 5.94 µM	0.991 to 5.94 µM	8.67 to 11.1 µM	0.991 to 5.94 µM	> 11.1 µM	> 11.1 µM	> 11.1 µM	0.991 to 5.94 µM	< 0.991 µM	0.991 to 5.94 µM
COc1cc(Nc2ncnc(Nc3cccc4cccnc34)n2)cc(OC)c1OC [Compound 97]	8.65 to 11.1 µM	5.93 to 8.65 µM	> 11.1 µM	> 11.1 µM	> 11.1 µM	> 11.1 µM	> 11.1 µM	> 11.1 µM	< 0.989 µM	5.93 to 8.65 µM
COc1cc(Nc2ncnc(Nc3ccccc3)n2)cc(OC)c1OC [Compound 91]	1.13 to 6.79 µM	< 1.13 µM	> 12.7 µM	1.13 to 6.79 µM	> 12.7 µM	> 12.7 µM	> 12.7 µM	1.13 to 6.79 µM	< 1.13 µM	6.79 to 9.9 µM
COc1ccc(Nc2ncnc(Nc3cc(OC)c(OC)c(OC)c3)n2)cc1 [Compound 89]	1.04 to 6.26 µM	1.04 to 6.26 µM	> 11.7 µM	1.04 to 6.26 µM	> 11.7 µM	> 11.7 µM	> 11.7 µM	1.04 to 6.26 µM	< 1.04 µM	> 11.7 µM
COc1cc(Nc2ncnc(Nc3cc(C)c(O)cc3C)n2)cc(OC)c1OC [Compound 94]	< 1.01 µM	< 1.01 µM	> 11.3 µM	< 1.01 µM	> 11.3 µM	> 11.3 µM	> 11.3 µM	6.04 to 8.81 µM	1.01 to 6.04 µM	> 11.3 µM
COc1cc(Nc2ncnc(Nc3ccc(N)cc3)n2)cc(OC)c1OC [Compound 92]	> 12.2 µM	> 12.2 µM	> 12.2 µM	1.09 to 6.51 µM	6.51 to 9.5 µM	1.09 to 6.51 µM	9.5 to 12.2 µM	1.09 to 6.51 µM	1.09 to 6.51 µM	6.51 to 9.5 µM
COc1cc(Nc2ncnc(-n3c(Nc4ccc(F)cc4)nc4ccccc43)n2)cc(OC)c1OC [Compound 387]	0.821 to 4.92 µM	> 9.23 µM	> 9.23 µM	> 9.23 µM	> 9.23 µM	7.18 to 9.23 µM	> 9.23 µM	> 9.23 µM	< 0.821 µM	0.821 to 4.92 µM
COc1cc(Nc2ncnc(Nc3ccc(C)c(O)c3)n2)cc(OC)c1OC [Compound 83]	< 1.04 µM	< 1.04 µM	1.04 to 6.26 µM	< 1.04 µM	9.13 to 11.7 µM	> 11.7 µM	> 11.7 µM	1.04 to 6.26 µM	< 1.04 µM	< 1.04 µM
COc1cc(Nc2ncnc(-n3c(NCc4ccccc4)nc4ccccc43)n2)cc(OC)c1OC [Compound 371]	0.827 to 4.96 µM	< 0.827 µM	> 9.31 µM	4.96 to 7.24 µM	> 9.31 µM	> 9.31 µM	> 9.31 µM	> 9.31 µM	< 0.827 µM	< 0.827 µM
O=C1OCc2ccc(Nc3ncnc(Nc4cc(-c5ccco5)n[nH]4)n3)cc21 [Compound 364]	6.39 to 9.32 µM	> 12 µM	6.39 to 9.32 µM	1.07 to 6.39 µM	> 12 µM	1.07 to 6.39 µM	> 12 µM	1.07 to 6.39 µM	6.39 to 9.32 µM	1.07 to 6.39 µM
COc1cc(Nc2ncnc(-n3c(Cl)nc4ccccc43)n2)cc(OC)c1OC [Compound 378]	5.81 to 8.48 µM	5.81 to 8.48 µM	> 10.9 µM	> 10.9 µM	8.48 to 10.9 µM	0.969 to 5.81 µM	> 10.9 µM	0.969 to 5.81 µM	0.969 to 5.81 µM	< 0.969 µM

Source: patent US7074789B2, “Kinase inhibitors” (Amgen Inc., priority 1999, dated 2006)
